Series [1] deals with Mus musculus. As to the kind of experiment: Antiamnesic activity against scopolamine-induced amnesia in ip dosed mouse by passive-avoidance test. It counts as functional. Conditions: read-out: MED.
In series [2] the test system is Mus musculus. As to the kind of experiment: Procognitive effect in ip dosed mouse assessed as inhibition of memory deficit by passive-avoidance test. Type of series: functional. To be noted: read-out: MED.
The subject of series [3] is Mus musculus. Kind of series: Ratio of MED for drug to MED for piracetam against scopolamine-induced amnesia in ip dosed mouse by passive-avoidance test. Type of series: functional.
Series [4] relates to Mus musculus. Kind of series: Toxicity in ip dosed mouse assessed as change motor coordination by rota rod test. Type of series: organism-based. Conditions: in vivo. In general terms: Falling from the rotarod earlier than controls is read as motor impairment.
Series [5] concerns Mus musculus. Kind of series: Effect on inspection activity in ip dosed mouse by hole-board test. Type of series: functional, organism-based.
Series [6] deals with Mus musculus. As to the kind of experiment: Toxicity in ip dosed mouse assessed as change in gross behavior. It counts as organism-based. To be noted: in vivo.
The test system of series [7] is Mus musculus. As to the kind of experiment: Effect on spontaneous motility in ip dosed mouse by hole-board test. Type of series: functional, organism-based.

The structures appear in SMILES notation. Active and inactive are the calls of the source. The calls are words filed in the database; no cut-off is given here.

The values that follow come from ChEMBL document CHEMBL1152639, “Design, synthesis and nootropic activity of new analogues of sunifiram and sapunifiram, two potent cognition-enhancers” (Bioorg Med Chem, 2009).

For the compound `CNC(=O)C1CCN(S(=O)(=O)c2ccc(F)cc2)CC1`, the minimal effective dose in series [1] came out at 0.1 mg/kg; in series [2], 1 mg/kg. For `CCCS(=O)(=O)N1CCN(C(=O)CC)CC1`, the minimal effective dose in series [1] stood at 1 mg/kg. For the same compound, the Ratio in series [3] was found to be 30. The like results for `CC(=O)N1CCN(S(=O)(=O)c2ccc(F)cc2)CC1` were, in that order, 0.01 mg/kg and 30. For the compound `CC(=O)N1CCCN(C(=O)c2ccccc2)C1`, in series [1], the minimal effective dose was 1 mg/kg. `CC(=O)N1CCCN(C(=O)Cc2ccccc2)CC1`: the minimal effective dose in series [1] turned out to be 0.01 mg/kg; in series [2], 1 mg/kg. Moreover, in series [3], the Ratio stood at 30. As for `CCC(=O)N1CCN(C(=O)Oc2ccccc2)CC1`, in series [1], the minimal effective dose stood at 10 mg/kg. On to `CCC(=O)N1CCN(S(=O)(=O)c2ccc(F)cc2)CC1`, for which the minimal effective dose in series [1] came to 0.01 mg/kg. Further, the Ratio in series [3] is reported as 30. For `CC(=O)NC1CCN(S(=O)(=O)c2ccc(F)cc2)CC1` [SAPUNIFIRAM], the Activity result in series [4] and in series [6] was “Non-toxic” each time. Also, the result in series [5] and in series [7] was inactive. Besides, the minimal effective dose was found to be 0.01 mg/kg in series [1] and 0.1 mg/kg in series [2]. Regarding `NC(=O)CN1CCCC1=O` [PIRACETAM], the Activity result in series [4] and in series [6] was “Non-toxic” in each case. Moreover, the outcome in series [5] and in series [7] was inactive. Moreover, the minimal effective dose in series [1] stood at 30 mg/kg. As for `CCCS(=O)(=O)N1CCN(C(C)=O)CC1`, the minimal effective dose in series [1] was 0.1 mg/kg. Also, the Ratio in series [3] is 30. As to `CCC(=O)N1CCN(C(=O)Cc2ccccc2)CC1`, the minimal effective dose in series [1] came out at 1 mg/kg. Consider `CCCS(=O)(=O)N1CCCN(C(C)=O)C1`, for which, in series [1], the minimal effective dose came to 1 mg/kg.

As for `CCC(=O)N1CCN(C(=O)c2ccccc2)CC1` [SUNIFIRAM], the Activity result in series [4] and in series [6] was “Non-toxic” throughout. Also, the outcome in series [5] and in series [7] was inactive. Moreover, the minimal effective dose in series [1] was 0.001 mg/kg; in series [2] it was 0.01 mg/kg. Besides, in series [3], the Ratio is recorded as 30. As for `CC(=O)NC(=O)C1CCN(S(=O)(=O)c2ccc(F)cc2)CC1`, the minimal effective dose in series [1] was found to be 1 mg/kg. On to `CCCS(=O)(=O)N1CCCN(C(=O)CC)CC1`, for which, in series [1], the minimal effective dose was more than 10 mg/kg. The Ratio in series [3] was found to be 30. As for `CCCS(=O)(=O)N1CCN(C(=O)CC)C1`, the minimal effective dose in series [1] was more than 10 mg/kg. For `CC(=O)N1CCCN(C(=O)c2ccccc2)CC1`, the values for the minimal effective dose in series [1] and in series [2] were 0.01 mg/kg and 1 mg/kg, respectively. Further, in series [3], the Ratio turned out to be 30. On to `CCC(=O)N1CCCN(S(=O)(=O)c2ccc(F)cc2)CC1`, for which the minimal effective dose in series [1] came to 1 mg/kg; in series [2], 10 mg/kg. Besides, in series [3], the Ratio is on record as 30.

Take `CC(=O)N1CCN(C(=O)c2ccccc2)C1`: the minimal effective dose in series [1] is 1 mg/kg. Turning to `CCC(=O)N1CCC(NC(C)=O)CC1`, the minimal effective dose in series [1] was more than 10 mg/kg. For the compound `CCC(=O)N1CCCN(C(=O)c2ccccc2)C1`, the minimal effective dose in series [1] stood at 1 mg/kg.

Take `CC(=O)N1CCCN(S(=O)(=O)c2ccc(F)cc2)CC1`: the values for the minimal effective dose in series [1] and in series [2] were 1 mg/kg and 10 mg/kg, respectively. For the same compound, the Ratio in series [3] was 30. `CCC(=O)N1CCN(S(=O)(=O)c2ccc(F)cc2)C1`: the minimal effective dose in series [1] was found to be 1 mg/kg. As for `CC(=O)N1CCCN(S(=O)(=O)c2ccc(F)cc2)C1`, in series [1], the minimal effective dose was found to be 1 mg/kg. Take `CCC(=O)N1CCN(C(=O)c2ccccc2)C1`: in series [1], the minimal effective dose is 1 mg/kg. In the case of `CCC(=O)N1CCCN(C(=O)c2ccccc2)CC1`, the minimal effective dose in series [1] was found to be 0.1 mg/kg; in series [2] it was 1 mg/kg. Further, the Ratio in series [3] is recorded as 30.

`CCCS(=O)(=O)N1CCCN(C(C)=O)CC1`: in series [1], the minimal effective dose was more than 10 mg/kg. Also, the Ratio in series [3] is on record as 30. For the compound `CCNC(=O)C1CCN(S(=O)(=O)c2ccc(F)cc2)CC1`, the minimal effective dose in series [1] came out at 1 mg/kg.

As to `CCC(=O)N1CCN(C(=O)Nc2ccccc2)CC1`, in series [1], the minimal effective dose was more than 10 mg/kg. In the case of `CCC(=O)N1CCN(C(=O)CC)CC1`, in series [1], the minimal effective dose was more than 10 mg/kg. As for `CCC(=O)NC1CCN(C(C)=O)CC1`, the minimal effective dose in series [1] was determined as 10 mg/kg. For the compound `CCCS(=O)(=O)N1CCCN(C(=O)CC)C1`, the minimal effective dose in series [1] is more than 10 mg/kg. For `CCCS(=O)(=O)N1CCN(C(C)=O)C1`, the minimal effective dose in series [1] amounted to 10 mg/kg.

Turning to `CC(=O)N1CCN(C(=O)c2ccccc2)CC1`, the minimal effective dose in series [1] worked out at 10 mg/kg. Further, in series [3], the Ratio was 30. For the compound `CCC(=O)N1CCN(C(C)=O)CC1`, in series [1], the minimal effective dose turned out to be 10 mg/kg.

For the compound `CC(=O)N1CCN(S(=O)(=O)c2ccc(F)cc2)C1`, in series [1], the minimal effective dose turned out to be 1 mg/kg.

On to `CCC(=O)N1CCCN(S(=O)(=O)c2ccc(F)cc2)C1`, for which, in series [1], the minimal effective dose was 1 mg/kg.
